Data reported in patent publication US7029857B1, “Processes for obtaining compounds employing SNORF72 receptors” (H. Lundbeck A/S, priority 1999, dated 2006).
Values joined by “and” are separate entries in the source; they are usually repeats but may differ in a detail not shown here. Equal entries are not always repeated. No end group written: not given here.

Columns and labels:
[1] = tested on: rat uterus membranes; settings: binding site in rat uterus; cited from earlier work
[2] = cited from earlier work
[3] = tested on: isolated rat inner adrenocortical cells; settings: absence of medullary cells; cited from earlier work
[4] = molecular target: T1, rat SNORF72 (Rattus norvegicus, UniProt Q9ESQ4); test: Intracellular Ca2+ release (FLIPR) in rat SNORF72-transfected COS-7 cells; format: cell-based; settings: FIG. 22 at 100 nM
T1 construct: corresponding to a predicted protein of 395 amino acids; expressed in transfected cells; host or cells: COS-7 (transient)
T1 sequence (Q9ESQ4 whole entry): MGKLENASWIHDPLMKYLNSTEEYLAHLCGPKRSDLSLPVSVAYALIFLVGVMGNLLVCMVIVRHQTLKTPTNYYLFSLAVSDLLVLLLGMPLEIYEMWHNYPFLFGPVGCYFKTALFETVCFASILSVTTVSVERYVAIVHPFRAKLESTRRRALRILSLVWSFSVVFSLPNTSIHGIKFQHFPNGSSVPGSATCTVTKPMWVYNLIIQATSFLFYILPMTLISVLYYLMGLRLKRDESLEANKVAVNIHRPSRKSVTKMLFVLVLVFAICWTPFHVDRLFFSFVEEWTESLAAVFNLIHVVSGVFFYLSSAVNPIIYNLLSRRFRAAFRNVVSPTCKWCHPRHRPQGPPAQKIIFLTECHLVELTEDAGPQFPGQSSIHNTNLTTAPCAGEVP
Method: A typical protocol for the DEAE-dextran method as applied to COS-7 and HEK293 cells is described as follows. Cells to be used for transfection are split 24 hours prior to the transfection to provide flasks which are 70–80% confluent at the time of transfection. Briefly, 8 μg of receptor DNA plus 8 μg of any additional DNA needed (e.g. Gα protein expression vector, reporter construct, antibiotic resistance marker, mock vector, etc.) are added to 9 ml of complete DMEM plus DEAE-dextran mixture (10 mg/ml in PBS). Cells plated into a T225 flask (sub-confluent) are washed once with PBS and the DNA mixture is added to each flask. The cells are allowed to incubate for 30 minutes at 37° C., 5% CO2. Following the incubation, 36 ml of complete DMEM with 80 μM chloroquine is added to each flask and allowed to incubate an additional 3 hours. […]
In another method, the measurement of intracellular Ca^2+ can also be performed on a 96-well (or higher) format and with alternative Ca^2+-sensitive indicators, preferred examples of these are: aequorin, Fluo-3, Fluo-4, Fluo-5, Calcium Green-1, Oregon Green, and 488 BAPTA. After activation of the receptors with agonist ligands the emission elicited by the change of intracellular Ca^2+ concentration can be measured by a luminometer, or a fluorescence imager; a preferred example of this is the fluorescence imager plate reader (FLIPR™, Molecular Devices). […]

[5] = tested on: rat adrenal gland slices; settings: cited from earlier work
[6] = molecular target: T2, SNORF62 (Homo sapiens, UniProt Q9HB89); test: Intracellular Ca2+ release (FLIPR) in SNORF62-transfected COS-7 cells; format: cell-based; parameters: The SNORF62 cDNA codes for a protein of 426 amino acids; expressed in transfected cells; host or cells: COS-7 (transient, DEAE-dextran); settings: for maximum response / agonist efficacy at SNORF62: functional assay, data not shown
T2 sequence (Q9HB89 1-426): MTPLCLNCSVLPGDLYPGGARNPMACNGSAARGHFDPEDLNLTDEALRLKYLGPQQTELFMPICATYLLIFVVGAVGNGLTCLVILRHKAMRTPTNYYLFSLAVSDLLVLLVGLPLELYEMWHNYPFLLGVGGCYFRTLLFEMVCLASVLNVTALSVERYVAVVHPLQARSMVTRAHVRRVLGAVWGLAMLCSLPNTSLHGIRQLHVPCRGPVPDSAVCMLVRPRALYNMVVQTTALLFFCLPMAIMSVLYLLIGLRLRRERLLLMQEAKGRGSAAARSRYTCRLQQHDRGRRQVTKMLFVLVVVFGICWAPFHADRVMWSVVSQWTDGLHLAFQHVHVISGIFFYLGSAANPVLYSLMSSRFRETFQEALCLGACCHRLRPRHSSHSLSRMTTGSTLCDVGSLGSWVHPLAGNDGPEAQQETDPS
Method: (§1) A typical protocol for the DEAE-dextran method as applied to COS-7 and HEK293 cells is described as follows. Cells to be used for transfection are split 24 hours prior to the transfection to provide flasks which are 70–80% confluent at the time of transfection. Briefly, 8 μg of receptor DNA plus 8 μg of any additional DNA needed (e.g. Gα protein expression vector, reporter construct, antibiotic resistance marker, mock vector, etc.) are added to 9 ml of complete DMEM plus DEAE-dextran mixture (10 mg/ml in PBS). Cells plated into a T225 flask (sub-confluent) are washed once with PBS and the DNA mixture is added to each flask. The cells are allowed to incubate for 30 minutes at 37° C., 5% CO2. Following the incubation, 36 ml of complete DMEM with 80 μM chloroquine is added to each flask and allowed to incubate an additional 3 hours. The medium is then aspirated and 24 ml of complete medium containing 10% DMSO for exactly 2 minutes and then aspirated. The cells are then washed 2 times with PBS and 30 ml of complete DMEM added to each flask. The cells are then allowed to incubate over night. The next day the cells are harvested by trypsinization and reseeded into 96 well plates.
(§2) Cells expressing the receptor of interest are plated into clear, flat-bottom, black-walled 96-well plates (Costar) at a density of 80,000–150,000 cells per well and allowed to incubate for 48 hr at 5% CO2, 37° C. The growth medium is aspirated and 100 μL of loading medium containing Fluo-3 dye is added to each well. The loading medium contains: 20 mM HEPES (Sigma), 0.1% BSA (Sigma), dye/pluronic acid mixture (e.g. 1 mM Fluo-3/AM (Molecular Probes) and 10% pluronic acid (Molecular Probes) mixed immediately before use), and 2.5 mM probenecid (Sigma)(prepared fresh). The cells are allowed to incubate for about 1 hour at 5% CO2, 37° C.
(§3) The compounds of interest are diluted in wash buffer (Hank's BSS (without phenol red), 20 mM HEPES, 2.5 mM probenecid) to a 4× final concentration and aliquoted into a clear v-bottom plate (Nunc). Following the dye incubation, the cells are washed 4 times to remove excess dye using a Denley plate washer. 100 μL final volume of wash buffer is then added to each cell well. Compounds are added to the cell plates and responses are measured using the FLIPR™ instrument. The data are then collected and analyzed using the FLIPR™ software and Graphpad Prism.
(§4) COS-7 cells were transiently transfected with SNORF62, SNORF72 or vector DNA (mock) as described in Materials and Methods.

[7] = molecular target: T2, SNORF62; test: Inositol phosphate (IP) release in SNORF62-transfected COS-7 cells; format: cell-based; parameters: The SNORF62 cDNA codes for a protein of 426 amino acids; expressed in transfected cells; host or cells: COS-7 (transient, DEAE-dextran)
Method: Human SNORF62 receptor-mediated activation and human SNORF72 receptor-mediated activation of the inositol phosphate (IP) second messenger pathways were assessed by radiometric measurement of IP products.
For example, in a 96 well microplate format assay, COS-7 cells expressing the receptor of interest were plated at a density of 70,000 cells per well and allowed to incubate for 24 hours. The cells were then labeled with 0.5 μCi [^3H]myo-inositol overnight at 37° C., 5% CO2. Immediately before the assay, the medium was removed and replaced with 180 μL of Phosphate-Buffered Saline (PBS) containing 10 mM LiCl. The plates were then incubated for 20 min at 37° C., 5% CO2. Following the incubation, the cells were challenged with agonist (20 μl/well; 10× concentration) for 30 min at 37° C. The challenge was terminated by the addition of 100 μL of 5% v/v trichloroacetic acid, followed by incubation at 4° C. for greater than 30 minutes. Total IPs were isolated from the lysate by ion exchange chromatography. Briefly, the lysed contents of the wells were transferred to a Multiscreen HV filter plate (Millipore) containing Dowex AG1-X8 (200–400 mesh, formate form). The filter plates were prepared adding 100 μL of Dowex AG1-X8 suspension (50% v/v, water: resin) to each well. The filter plates were placed on a vacuum manifold to wash or elute the resin bed. Each well was first washed 2 times with 200 μl of 5 mM myo-inositol. Total [^3H]inositol phosphates were eluted with 75 μl of 1.2M ammonium formate/0.1M formic acid solution into 96-well plates. 200 μL of scintillation cocktail was added to each well, and the radioactivity was determined by liquid scintillation counting.

[8] = molecular target: T3, SNORF72 (Homo sapiens, UniProt Q9GZQ4, A395T); test: Intracellular Ca2+ release (FLIPR) in SNORF72-transfected COS-7 cells; format: cell-based; settings: SNORF72-transfected COS-7 cells, peptides at 300 nM (FIG. 8)
T3 construct: expressed in transfected cells; host or cells: COS-7 (transient, DEAE-dextran)
T3 sequence (Q9GZQ4 whole entry A395T): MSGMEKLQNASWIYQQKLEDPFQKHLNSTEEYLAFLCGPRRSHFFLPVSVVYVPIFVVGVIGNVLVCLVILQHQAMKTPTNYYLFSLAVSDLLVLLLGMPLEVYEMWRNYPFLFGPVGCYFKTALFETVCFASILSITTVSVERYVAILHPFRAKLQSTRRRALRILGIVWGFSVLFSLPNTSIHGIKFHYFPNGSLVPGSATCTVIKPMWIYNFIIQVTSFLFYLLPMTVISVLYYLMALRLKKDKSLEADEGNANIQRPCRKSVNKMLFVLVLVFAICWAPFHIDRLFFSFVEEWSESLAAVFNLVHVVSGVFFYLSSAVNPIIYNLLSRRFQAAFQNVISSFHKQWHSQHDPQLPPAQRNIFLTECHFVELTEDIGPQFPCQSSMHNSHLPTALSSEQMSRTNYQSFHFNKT
Method: as §1, §2, §3, §4

[9] = tested on: isolated rat uterus preparations; settings: read-out: EC50 concentration for contraction; cited from earlier work
[10] = molecular target: T2, SNORF62; test: Displacement of [125I]rat NMU-23 binding in SNORF62-transfected COS-7 membranes; parameters: The SNORF62 cDNA codes for a protein of 426 amino acids; expressed in transfected cells; host or cells: COS-7 (transient, DEAE-dextran); settings: SNORF62 membranes, displacement of [125I]rat NMU-23; read-out: average pKi (converted)
Method: (§5) The specifics of preparing such cell membranes may in some cases be determined by the nature of the ensuing assay but typically involve harvesting whole cells and disrupting the cell pellet by sonication in ice cold buffer (e.g. 20 mM Tris HCl, mM EDTA, pH 7.4 at 4° C.). The resulting crude cell lysate is cleared of cell debris by low speed centrifugation at 200×g for 5 min at 4° C. The cleared supernatant is then centrifuged at 40,000×g for 20 min at 4° C., and the resulting membrane pellet is washed by suspending in ice cold buffer and repeating the high speed centrifugation step. The final washed membrane pellet is resuspended in assay buffer. Protein concentrations are determined by the method of Bradford (1976) using bovine serum albumin as a standard. The membranes may be used immediately or frozen for later use.
(§6) Radioligand binding assays were performed by diluting membranes prepared from cells expressing the receptor in 50 mM Tris buffer (pH=7.4 at 0° C.) containing 0.1% bovine serum albumin (Sigma), aprotinin (0.005 mg/ml, Boehringer Mannheim) and bestatin (0.1 mM, Sigma) as protease inhibitors. The final protein concentration in the assay was 12–40 μg/ml. […] The bound ligand was separated from free by filtration through GF/B filters presoaked in 0.5% polyethyleneimine (PEI), using a Tomtec (Wallac) vacuum filtration device. After addition of Ready Safe (Beckman) scintillation fluid, bound radioactivity was quantitated using a Trilux (Wallac) scintillation counter (approximately 40% counting efficiency of bound counts). Data was fit to non-linear curves using GraphPad Prism.
(§7) In this manner, agonist or antagonist compounds that bind to the receptor may be identified as they inhibit the binding of the labeled ligand to the membrane protein of cells expressing the said receptor. Non-specific binding was defined as the amount of radioactivity remaining after incubation of membrane protein in the presence of 100 nM of the unlabeled peptide corresponding to the radioligand used. In equilibrium saturation binding assays membrane preparations or intact cells transfected with the receptor are incubated in the presence of increasing concentrations of the labeled compound to determine the binding affinity of the labeled ligand.

[11] = molecular target: T3, SNORF72; test: Displacement of [125I]rat NMU-23 binding in SNORF72-transfected COS-7 membranes; settings: SNORF72 membranes, displacement of [125I]rat NMU-23; read-out: average pKi (converted)
Method: as §5, §6, §7

[12] = molecular target: T2, SNORF62; test: Saturation binding of radioligands to SNORF62-transfected COS-7 membranes; parameters: The SNORF62 cDNA codes for a protein of 426 amino acids; expressed in transfected cells; host or cells: COS-7 (transient, DEAE-dextran); settings: two values n=2
Method: COS-7 cells were transiently transfected with SNORF62 and membranes were prepared as described in Materials and Methods. […] Results are representative of 2 experiments performed in duplicate.
(§8) Cell membranes expressing the receptor protein of this invention are useful for certain types of assays including but not restricted to ligand binding assays, GTP-γ-S binding assays, and others. The specifics of preparing such cell membranes may in some cases be determined by the nature of the ensuing assay but typically involve harvesting whole cells and disrupting the cell pellet by sonication in ice cold buffer (e.g. 20 mM Tris HCl, mM EDTA, pH 7.4 at 4° C.). The resulting crude cell lysate is cleared of cell debris by low speed centrifugation at 200×g for 5 min at 4° C. […] Protein concentrations are determined by the method of Bradford (1976) using bovine serum albumin as a standard. […]
(§9) Radioligand binding assays were performed by diluting membranes prepared from cells expressing the receptor in 50 mM Tris buffer (pH=7.4 at 0° C.) containing 0.1% bovine serum albumin (Sigma), aprotinin (0.005 mg/ml, Boehringer Mannheim) and bestatin (0.1 mM, Sigma) as protease inhibitors. […] After addition of Ready Safe (Beckman) scintillation fluid, bound radioactivity was quantitated using a Trilux (Wallac) scintillation counter (approximately 40% counting efficiency of bound counts). […]

[13] = molecular target: T3, SNORF72; test: Saturation binding of radioligands to SNORF72-transfected COS-7 membranes; settings: two values n=2
Method: COS-7 cells were transiently transfected with SNORF72 and membranes were prepared as described in Materials and Methods. […] Results presented are representative of 2 experiments performed in duplicate.
as §8, §9

[14] = rats, single subcutaneous injection 6 μg/100 g body weight

| increases in intracellular Ca2+ [4] | maximum response / agonist efficacy at SNORF62 [6] | agonist efficacy in IP release assay [7] | stimulation of intracellular Ca2+ release [8] | EC50 ([6]; stimulation of Ca2+ release, SNORF62-transfected COS-7 cells, n = 2-7 (Table 1A)) [nM] | Ki [10] [nM] | Ki [11] [nM] | Molecule | IC50 [1] [nM] | stress-evoked rise in corticosterone ([2]; rats treated for 6 days) | time during which ACTH blood concentrations are elevated [2, 14] [h] | time plasma corticosterone levels remain elevated [2, 14] [h] | adrenal weight and the number of cells in the zona reticularis ([2]; repeated administration) | basal corticosterone secretion [3] | basal corticosterone and pregnenolone steroid secretion [5] | EC50 [9] [nM] | Bmax [12] | Bmax [13] |
| --- | --- | --- | --- | --- | --- | --- | --- | --- | --- | --- | --- | --- | --- | --- | --- | --- | --- |
| robust increases | full agonists | full agonists | stimulated | – | – | – | CC(C)C[C@H](NC(=O)[C@H](Cc1ccccc1)NC(=O)[C@@H](N)Cc1ccc(O)cc1)C(=O)N[C@@H](Cc1ccccc1)C(=O)N[C@@H](CCCNC(=N)N)C(=O)N1CCC[C@H]1C(=O)N[C@@H](CCCNC(=N)N)C(=O)N[C@@H](CC(N)=O)C(N)=O [porcine NMU-8, Y F L F R P R N—NH2] | 60 | absent | 3 to 12 | 24 | decreased | without effect | markedly increased | – | – | – |
| robust increases | full agonists | full agonists | stimulated | 2.1 ± 0.5 | 0.398 | 1 | YKVNEYQGPVAPSGGFFLFRPRN-NH2 [rat NMU-23, YKVNEYQGPVAPSGGFFLFRPRN—NH2] | 1 | – | – | – | – | directly decreased | – | 0.2 | – | – |
| – | – | – | – | – | – | – | [^125I]rat NMU-23: radioiodinated rat NMU-23 radioligand (NEN, specific activity 2200 Ci/mmole) (YKVNEYQGPVAPSGGFFLFRPRN-NH2; ends and bridges not checked; also: radioiodinated (125I), position not given here) | – | – | – | – | – | – | – | – | 16.5 pmol/mg protein and 9.9 pmol/mg protein | 8.0 pmol/mg protein and 8.2 pmol/mg protein |
